Our source for the EC50 values is BindingDB's records for patent WO2022076764 (BRISTOL-MYERS SQUIBB COMPANY, 2022).

One test deals with T1, fMet-Leu-Phe receptor (Homo sapiens, UniProt P21462).
T1 sequence (P21462 whole entry): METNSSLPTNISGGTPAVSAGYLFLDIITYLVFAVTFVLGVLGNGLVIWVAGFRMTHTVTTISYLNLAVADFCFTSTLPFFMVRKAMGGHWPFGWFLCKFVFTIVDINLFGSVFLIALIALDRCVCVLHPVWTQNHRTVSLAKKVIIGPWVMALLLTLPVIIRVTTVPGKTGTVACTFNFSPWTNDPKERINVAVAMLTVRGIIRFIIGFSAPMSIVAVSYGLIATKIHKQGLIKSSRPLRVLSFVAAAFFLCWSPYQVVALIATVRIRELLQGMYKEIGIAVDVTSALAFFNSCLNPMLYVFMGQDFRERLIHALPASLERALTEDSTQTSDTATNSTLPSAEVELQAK

Test [1] deals with T2, N-formyl peptide receptor 2 (Homo sapiens, UniProt P25090).
T2 sequence (P25090 whole entry): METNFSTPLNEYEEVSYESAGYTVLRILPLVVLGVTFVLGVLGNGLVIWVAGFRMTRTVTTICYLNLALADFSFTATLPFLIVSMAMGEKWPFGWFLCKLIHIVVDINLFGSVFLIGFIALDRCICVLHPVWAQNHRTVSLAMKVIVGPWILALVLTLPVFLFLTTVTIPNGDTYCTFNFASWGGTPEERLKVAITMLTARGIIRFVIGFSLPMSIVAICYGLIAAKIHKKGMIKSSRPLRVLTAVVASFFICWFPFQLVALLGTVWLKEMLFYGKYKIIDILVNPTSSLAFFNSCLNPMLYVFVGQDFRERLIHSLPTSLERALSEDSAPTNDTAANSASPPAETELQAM

The structures appear in SMILES notation.

In the case of `COc1cc(F)c(-n2cc(-c3ccc(C#N)cc3)nc2NC(=O)c2ccc(OC(F)F)cc2)c(F)c1` [WO2022076764, Example 16], the EC50 at fMet-Leu-Phe receptor worked out at 27 nM; in test [1] it was 230 nM.

What is called EC50 is the concentration that produces a half-maximal response. A lower EC50 goes with a more potent agent.
